Molecules are shown by their SMILES. Values after ≈ are worked out from the molar mass of the structure shown.

These results are taken from EP2311435A1, “Pharmaceutical composition comprising poorly soluble active ingredient and hyperbranched polymer” (LEK Pharmaceuticals d.d., priority 2009, dated 2011).

The conditions of data set [1]: pH 6.8.
The nature of data set [2]: physchem. The conditions noted are these: pH 6.8, aqueous buffer.
Data set [3] can be described thus: physchem. The conditions noted are these: 37 °C, pH 7, aqueous buffer, thermodynamic from solid. As to the method:
Solubility as meant herein is measured using USP apparatus 2 (U.S. Pharmacopoeia 32-NF27) with agitation at 75 RPM in the dissolution medium of a phosphate buffer maintained at pH 6.8 and 37° C. Such low solubility makes preparing a useful pharmaceutical composition of acceptable size and efficacy especially difficult.
In a preferred embodiment, this is irrespective of the pharmacological effect it might have or ailment it is used to prevent or treat.
The pharmaceutical compositions, powders or granulates according to the invention comprise the hyperbranched polymer/API in specific weight ratios.

Data set [4] can be described thus: In vitro dissolution of glimepiride, USP Apparatus II (paddle), phosphate buffer pH 6.8. In kind it is physicochemical. The conditions noted are these: mixed with hyperbranched polymer at the ratio of the invention, 37 °C, figures 3 and 4. As to the method:
Approximately 50 % of the active ingredient (4 mg) is dissolved after 60 minutes of testing at following conditions: 37 °C in the USP Dissolution Tester, Apparatus II (Paddle method) using 900 ml of phosphate buffer (pH 6.8) as the dissolution medium and at a rotation rate of 75 rpm.
Dissolution of glimepiride was assessed at 37 °C by the USP Dissolution Tester, Apparatus II (Paddle method) at a rotation rate of 75 rpm using 900 ml of phosphate buffer (pH 6.8) as dissolution medium. The tested samples were added directly to the buffer in the correct amount to achieve a final concentration of 4,4 µg / mL glimepiride (equals therapeutic dose dissolved in 900 mL). Aliquots, each of 2 ml, from the dissolution medium were withdrawn at time intervals of 5, 15, 30, 60 minutes. The samples were withdrawn through syringe and filtered through Millipore filter and analyzed for glimepiride content using HPLC method.
The amount of dissolved glimepiride was estimated by reversed-phase HPLC (Waters Alliance) in a binary mode, with a photodiode array detector and a communication bus module. […]

Data set [5] in a line: In vitro dissolution of indapamide, USP Apparatus II (paddle), phosphate buffer pH 6.8. In kind it is physicochemical. The conditions noted are these: with polyesteramide hyperbranched polymers, figure 5. How it is done:
Dissolution of indapamide was assessed at 37 °C by the USP Dissolution Tester, Apparatus II (Paddle method), using 900 ml of phosphate buffer (pH 6.8) as the dissolution medium and at a rotation rate of 75 rpm. The tested samples were added directly to buffer in an amount in order to achieve a final concentration of 15 µg / mL indapamide. Aliquots, each of 2 ml, from the dissolution medium were withdrawn at time intervals of 5, 15, 30, 60 minutes. The samples were withdrawn through syringe and filtered through Millipore filter in order to separate the undissolved sample and analyzed for indapamide using UV spectrofotometry at 287 nm.

A short description of data set [6]: In vitro dissolution of pimobendan, USP Apparatus II (paddle), phosphate buffer pH 6.8. In kind it is physicochemical. The conditions noted are these: admixed with Hybrane S1200, 2% and 5% of active ingredient. As to the method: The samples of pimobendan were prepared as in examples 6 to 13. Dissolution of pimobendan was assessed at 37 °C by the USP Dissolution Tester, Apparatus II (Paddle method) at a rotation rate of 75 rpm, using 900 ml of phosphate buffer (pH 6.8) as the dissolution medium. The tested samples were added directly to the buffer in the correct amount to achieve a final concentration of 5.5 µg / mL pimobendan (equals therapeutic dose dissolved in 900 mL). Aliquots, each of 2 ml, from the dissolution medium were withdrawn at time intervals of 5, 15, 30, 60 minutes. The samples were withdrawn through syringe and filtered through Millipore filter in order to separate the undissolved sample and analyzed for pimobendan using HPLC method.

The mark [7] stands for this setting: Solubility in the presence of Hybrane S1200.

In turn, `O=C1C(O)=C([C@H]2CC[C@H](c3ccc(Cl)cc3)CC2)C(=O)c2ccccc21` [atovaquone] came in with an Increase in data set [1] of 100 fold. For the same compound, the solubility in the data set “physchem [2]” (setting [7]) was found to be 3 µg/mL; in the data set “physchem [2]” (Solubility without polymer), 0.03 µg/mL (≈ 0.0818 µM); in the data set “physchem [3]”, 3 µg/mL (≈ 8.18 µM).
The compound `COc1ccc(Cl)cc1C(=O)NCCc1ccc(S(=O)(=O)NC(=O)NC2CCCCC2)cc1` [glibenclamide] displayed a solubility in “physchem [3]” of 60 µg/mL (≈ 121 µM).
Still for that read-out and setting: under `Cc1ccc(S(=O)(=O)NC(=O)NN2CC3CCCC3C2)cc1` (stereo not shown) [gliclazide] stands 50 µg/mL (≈ 155 µM).
For `CCC1=C(C)CN(C(=O)NCCc2ccc(S(=O)(=O)NC(=O)N[C@H]3CC[C@H](C)CC3)cc2)C1=O` [glimepiride], the Increase in data set [1] is 10 fold. Besides, the solubility in “physchem [2]” (setting [7]) was 10 µg/mL; in “physchem [2]” (Solubility without polymer) it was 1 µg/mL (≈ 2.04 µM); in “physchem [3]” it was 1 µg/mL (≈ 2.04 µM). The solubility of glimepiride result in data set [4] was “significantly increased”.
Consider `CC1Cc2ccccc2N1NC(=O)c1ccc(Cl)c(S(N)(=O)=O)c1` (stereo not shown) [indapamide], for which the Increase in data set [1] is listed as 140 fold. Moreover, the figures for the solubility in the data set “physchem [2]” (setting [7]), in the data set “physchem [2]” (Solubility without polymer) and in “physchem [3]” were 700 µg/mL, 5 µg/mL (≈ 13.7 µM) and 700 µg/mL (≈ 1910 µM), respectively. In data set [5], the “solubility of the indapamide” value is “remarkably enhance”.
In the case of `COc1ccc(-c2nc3ccc(C4=NNC(=O)CC4C)cc3[nH]2)cc1` (stereo not shown) [pimobendan], the Increase in data set [1] was found to be 50 fold. Besides, the solubility in the data set “physchem [2]” (setting [7]) was 210 µg/mL; in the data set “physchem [2]” (Solubility without polymer), 4 µg/mL (≈ 12 µM); in the data set “physchem [3]”, 210 µg/mL (≈ 628 µM). Further, in data set [6], the “solubility of the active ingredient” value is “significantly increases”.
On to `CN1CC(=O)N2[C@H](c3ccc4c(c3)OCO4)c3[nH]c4ccccc4c3C[C@@H]2C1=O` [tadalafil], for which, in data set [1], the Increase is 55 fold. For the same compound, the solubility was 110 µg/mL in “physchem [2]” (setting [7]), 2 µg/mL (≈ 5.14 µM) in “physchem [2]” (Solubility without polymer) and 110 µg/mL (≈ 282 µM) in “physchem [3]”.
